Laboratory results taken from patent US12509727B2, “Composition for diagnosis of Sjögren's syndrome” (THE CATHOLIC UNIVERSITY OF KOREA INDUSTRY-ACADEMIC …, priority 2017, dated 2025).

Columns and labels:
Type in all cases: in vivo, human
LC3B-II/I protein ratio = assay: Western blotting of tears, relative concentration measurement, after corticosteroid treatment; conditions: tears of SS DE patients; level before treatment 1.87±0.10; statistically significantly decreased
Experimental: (§1) Tears were collected from the Schirmer strips which absorbed the tear fluid as in Example 1. In order to extract tears, the Schirmer strips were placed in tubes containing extraction buffer (NaCl 0.5 M, Tween 20 0.5% in PBS). After one hour, the strips were transferred to a 0.5 ml tube with a hole at the bottom thereof using a cannula. The tube was inserted into a larger tube (1.5 ml). It was centrifuged at 12,000 rpm for 15 minutes. The centrifugal force caused the fluid to be drawn from the strip. Thus, the tear fluid passed through the center hole at the bottom of the small tube and was collected into the external 1.5 ml tube. The tear fluid was mixed with the sample-loading buffer, heated for 10 minutes, and centrifuged. Then, the protein concentration in the clear isolate was determined by using the BCA protein assay kit (Thermo Fisher Scientific, Rockford, IL). […] The improved chemical luminescence reagent (ECL; Amersham Biosciences, Sweden) was used to detect the protein band. […]
(§2) After applying topical corticosteroids to Sjögren's syndrome dry eye patients, change in the clinical parameters was assessed as well as autodigestion marker expression. After one month with topical corticosteroid therapy with artificial tears, OSDI score, Schirmer I value, TBUT, corneal staining, conjunctival staining, and OSS score were measured as in Example 1. […]

ATG5 protein = assay: as above; conditions: tears of SS DE patients; level before treatment 5.06±0.31; statistically significantly decreased
Experimental: as §1, §2

[1] = tested on: Sjögren's syndrome dry eye patients; assay: Clinical evaluation of ocular surface parameters before and after topical corticosteroid treatment; conditions: SS DE patients, after one month topical corticosteroid with artificial tears, mean ± SD
Experimental: […] participated in this Example (FIG. 1): 40 patients with Sjögren's syndrome dry eye (SS DE) (78 eyes), 24 patients with non-Sjögren's syndrome dry eye (non-SS DE) (48 eyes), and 16 normal healthy subjects as controls (25 eyes). 16 patients of the 40 patients with Sjögren's syndrome dry eye were treated with topical corticosteroid (4 times per one day for 1 month, 0.1% fluoromeladone, Sam-II Pharmaceutics Co. Seoul, Korea). […] All patients with Sjögren's syndrome dry eye were diagnosed with primary Sjögren's syndrome by a rheumatologist according to the 2012 Sjögren's International Collaborative Clinical Alliance (SICCA) classification criteria. This study excluded Sjögren's syndrome patients or subjects who had been treated with disease-modifying therapies. Due to the unique prevalence of females and males found in Sjögren's syndrome (F:M=9:1), only female patients participated in the study for the prevention of the data misinterpretation. Exclusion criteria were pregnant women, nurses, contact lens wearers, tear point closure patients, persons with eye surgery within 6 months, persons with acute or chronic eye disease other than dry eye syndrome, persons with concomitant allergies, persons with eyelid abnormalities, persons with Grade 2 or higher dysfunction of the meibomian gland. This study also excluded, as a subject, persons who had received other systemic treatments or other topical treatments other than artificial tears within the past 3 months.
The following ocular surface examinations were conducted on the 82 subjects; Schirmer I test, tear film breakup time (TBUT), ocular surface staining (OSS) score, and ocular surface disease index (OSDI) questionnaire.
The Schirmer I test was performed without anesthesia before injecting the drug into the eye. The standard Schirmer's strips were placed on the side ⅓ of the lower eyelid. After 5 minutes, the strips' wetness was measured by using a millimeter scale of the strips (Eagle Vision, Memphis, TN). Tear strips were cut horizontally and placed in cryovials. They were stored frozen for further analysis. To assess TBUT, one drop of the saline without preservatives was added to a fluorescein strip (Haag-Streit, Koeniz, Switzerland). It was applied to the conjunctiva of the lower eyelid. The patients blinked their eye 3 to 4 times for a few seconds for mixing thoroughly with the dye. Then, the test was conducted by using a slit lamp with cobalt blue light. The time until the defect appeared in the stained tear film was measured and recorded as TBUT. TBUT was measured three times and the score was averaged. OSS scores including conjunctival and corneal staining scores were evaluated according to the SICCA registry ocular examination protocol. First, one drop of 2% sterile fluorescein was put on the conjunctival sac to permeate. After one minute, the corneal staining score was assessed by evaluating fluorescein staining using a slit lamp with cobalt blue filter. The punctate epithelial erosions (PEE) stained with fluorescein were calculated and scored. When there is no PEE, the score is zero. When PEE is 1 to 5, the corneal score is 1; When PEE is 6 to 30, the score is 2; When PEE exceeds 30, the score is 3. Additional points were added when there were one or more fused staining portions, when there was staining in the pupil area of the cornea, or when there were one or more filaments in any part of the cornea. The maximum available score is 6 for each cornea. In order to measure the conjunctival staining score, fluorescein was washed with the saline without preservatives. Then, one drop of 1% Lissamine green dye (Leiter's Pharmacy San Jose, California) was applied to the lower conjunctival fornix of both eyes. […]

[2] = tested on: autodigestion marker (ATG5 and LC3B-II) in the conjunctiva; assay: Immunostaining of ATG5 and LC3B-II of conjunctiva before and after corticosteroid treatment; conditions: SS DE patients after the corticosteroid treatment; representative immunohistochemical images
Experimental: (§3) IC was carried out 15 minutes after the last stained eye solution was permeated by using a polyethersulfone filter (Suopor 200 membrane, Pall Corporation, Port Washington, New York). The filter paper was cut in half (13×6.5 mm). The sides were attached on the upper side-nasal and the upper side-temporal bulbar conjunctiva, respectively. With 0.05% paraformaldehyde (PFA), the filter attached on the upper side-nasal conjunctiva was transferred into a tube containing 2 ml of PBS for immunostaining. The paper attached on the upper side-temporal conjunctiva was collected from the filter paper up to 3 hours for the RNA extraction.
The IC filter paper having isolated epithelial cells was firmly pressed against a silane-coated slide (Muto Pure Chemicals Co., ltd. Tokyo, Japan). Thus, the epithelial cells were transferred onto the slide. They were used for immunofluorescence staining according to the Baudouins protocol. […]
as §2

ATG5 mRNA = assay: Real-time PCR of conjunctival epithelial cells (impression cytology) after corticosteroid treatment; conditions: conjunctival epithelial cells of SS DE patients; level before treatment 13.16±4.36; statistically significantly decreased
Experimental: as §3
(§4) RNAs were isolated from IC using TRIzol reagent (Gibco-Invitrogen, Grand Island, New York) according to the modified protocol (Barabino S et al., Immune response in the conjunctival epithelium of patients with dry eye. Experimental eye research 2010; 91: 524-9). […] The […] method was used for relative quantification. […]
as §2

LC3B-II mRNA = assay: as above; conditions: conjunctival epithelial cells of SS DE patients; level before treatment 12.93±4.44; statistically significantly decreased
Experimental: as §3, §4, §2

CC(=O)[C@@]1(O)CC[C@H]2[C@@H]3C[C@H](C)C4=CC(=O)C=C[C@]4(C)[C@@]3(F)[C@@H](O)C[C@@]21C [corticosteroid, fluoromeladone]
LC3B-II/I protein ratio in tears after corticosteroid treatment (LC3B-II/I protein ratio): ~1.27±0.08 times in change
ATG5 protein (vs β-actin) in tears after corticosteroid treatment (ATG5 protein): approximately 0.88±0.07 times in change
Conjunctival staining score (0-6), after treatment ([1]; before treatment 2.13 ± 1.90, P 0.0018): 1.06 ± 1.70
TBUT, after treatment ([1]; before treatment 2.16 ± 2.22, P 0.0007): 3.84 ± 1.90 s
Schirmer value, after treatment ([1]; before treatment 2.34 ± 1.66, P 0.0088): 3.78 ± 2.41 mm
Corneal staining score (0-6), after treatment ([1]; before treatment 2.78 ± 1.10, P <0.0001): 1.59 ± 1.21
Ocular surface staining score (0-12), after treatment ([1]; before treatment 4.84 ± 3.08, P <0.0001): 2.53 ± 2.55
OSDI score (0-100), after treatment ([1]; before treatment 50.19 ± 19.17, P 0.0411): 39.80 ± 17.89
staining spotting pattern of the autodigestion marker in the conjunctiva [2]: normalized
ATG5 gene encoding level after corticosteroid treatment (ATG5 mRNA): approximately 1.23±0.27 times in change
LC3B-II gene encoding level after corticosteroid treatment (LC3B-II mRNA): ~2.57±0.48 times in change
